Results reported in patent US20240010684A1, “MASP INHIBITORY COMPOUNDS AND USES THEREOF” (BAYER AKTIENGESELLSCHAFT, priority 2020, published 2024).
Like-named read-outs stand apart in the source and are kept apart here. Where a SMILES comes first, the peptide text is derived from it. Bridges are numbered along the chain shown (N, C = ends). [ ]: non-standard residue; d: D form. Oic = O=C(O)[C@@H]1C[C@@H]2CCCC[C@@H]2N1; tBuAla = CC(C)(C)C[C@H](N)C(=O)O; Pen = CC(C)(S)[C@H](N)C(=O)O; Ahx = NCCCCCC(=O)O

What was measured:
human MASP2 = human MASP2 (Homo sapiens (Human), UniProt O00187); test: Biochemical human MASP2 assay (FRET substrate)
Procedure, shortened: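 Mature recombinant human MASP2, expressed in HEK293 and purified by Ni-NTA affinity, was reacted with a DABCYL FRET peptide substrate (added as a 60 μM solution) for 60-120 min at 32 C. Fluorescence increase was read at ex 340/em 490 nm; IC50 was derived from % inhibition versus compound concentration.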

human MASP1 = human MASP1 (Homo sapiens (Human), UniProt P48740); test: Biochemical human MASP1 assay (FRET substrate)
Procedure, shortened: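 Recombinant human MASP1 (aa 297-699, C-terminal His tag, HEK293-expressed, Ni-NTA purified) diluted to 20 nM in 50 mM HEPES pH 8,0, 100 mM NaCl, 0,01% CHAPS, 0.5 mM glutathione, preincubated with compound in DMSO; reaction started with 20 μM ABZ/Dnp FRET substrate solution. Fluorescence (ex 320/em 420 nm) after 60-120 min at 32 C; IC50 from % inhibition.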

rat MASP1 = rat MASP1 (Rattus norvegicus (Rat), UniProt Q8CHN8); test: Biochemical rat MASP1 assay (FRET substrate)
From the text: A truncated cDNA sequence of rat MASP1encoding the fragment corresponding to the amino acids 302-704 with a C-terminal His Tag and N-terminal Ig-kappa secretion signal (SEQ ID No: 4) was subcloned into the mammalian expression vector pcDNA3.1 (Invitrogen).
(§1) The MASP1 or MASP2 expression vectors were transfected into the HEK293 (ATCC No. CRL-1573) cell line using Lipofectamine LTX® Reagent (Thermo-Fischer), as described by the manufacturer. The mature form of the recombinant rat MASP1 and MASP2 proteases were secreted into the culture medium. The MASP1 and MASP2 proteins were purified from the conditioned media by affinity chromatography on Ni-NTA Superflow resin (Qiagen) as described by the manufacturer.
4.2 Biochemical Rat MASP1 Assay.
Recombinant rat MASP1 enzyme produced in the HEK 293 cells was diluted in the reaction buffer (50 mM HEPES pH 8,0; 100 mM NaCl; 0,01% CHAPS; 0.5 mM Gluthathione) to the concentration of 4 nM and 25 μl was transferred into each single well of 384-well white microtiter plate (Greiner Bio One 781075). 1 μl of the inhibitor compound solution (dissolved in DMSO, at the corresponding concentration) or pure DMSO as a control was added to the same wells. The enzymatic reaction was initiated by addition of 25 μl of 40 μM solution of the FRET substrate Dabcyl-[…]-Glu(Edans)-NH2; (Dabcyl-4-((4-(dimethylamino)phenyl)azo)benzoic acid; Edans-5-[(2-Aminoethyl) amino]naphthalene-1-sulfonyl; custom synthesis by Jerini Peptide Technologies, Berlin) in the reaction buffer. The microtiter plate was incubated for 60-120 min at the temperature of 32 C. The increase of fluorescence intensity was measured in appropriate fluorescence plate reader (e.g. TECAN Ultra) using excitation wavelength of 340 nm and emission wavelength of 490 nm. IC50 values were calculated from percentage of inhibition of rat […] activity as a function of test compound concentration.

rat MASP2 = rat MASP2 (Rattus norvegicus (Rat), UniProt Q9JJS8); test: Biochemical rat MASP2 assay (FRET substrate)
From the text: as §1, with “The mature form of the recombinant rat MASP1 and MASP2 proteases were secreted into the culture medium.” left out, “M[…]” for “MASP2 proteins”

[1] = Average IC50, recombinant human MASP2, read-out: human MASP2 IC50
[2] = Average IC50, recombinant human MASP1, read-out: human MASP1 IC50
[3] = Average IC50, recombinant rat MASP1, read-out: rat MASP1 IC50
[4] = Average IC50, recombinant rat MASP2, read-out: rat MASP2 IC50

Chain of rat MASP1 (Q8CHN8 other isoform, or with tags, fused parts or gaps): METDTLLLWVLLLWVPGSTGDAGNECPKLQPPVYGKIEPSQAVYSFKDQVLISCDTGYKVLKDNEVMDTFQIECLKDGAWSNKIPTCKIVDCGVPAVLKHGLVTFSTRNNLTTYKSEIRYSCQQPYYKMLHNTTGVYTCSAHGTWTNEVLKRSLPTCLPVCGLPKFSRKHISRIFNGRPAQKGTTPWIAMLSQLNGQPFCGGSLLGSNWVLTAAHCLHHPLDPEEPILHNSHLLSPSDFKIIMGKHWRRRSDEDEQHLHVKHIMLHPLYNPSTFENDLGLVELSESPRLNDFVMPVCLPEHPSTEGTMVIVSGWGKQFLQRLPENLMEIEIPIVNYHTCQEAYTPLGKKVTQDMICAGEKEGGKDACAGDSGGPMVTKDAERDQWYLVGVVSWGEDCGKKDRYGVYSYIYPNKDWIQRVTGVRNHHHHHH
Chain of human MASP2 (O00187 other isoform, or with tags, fused parts or gaps): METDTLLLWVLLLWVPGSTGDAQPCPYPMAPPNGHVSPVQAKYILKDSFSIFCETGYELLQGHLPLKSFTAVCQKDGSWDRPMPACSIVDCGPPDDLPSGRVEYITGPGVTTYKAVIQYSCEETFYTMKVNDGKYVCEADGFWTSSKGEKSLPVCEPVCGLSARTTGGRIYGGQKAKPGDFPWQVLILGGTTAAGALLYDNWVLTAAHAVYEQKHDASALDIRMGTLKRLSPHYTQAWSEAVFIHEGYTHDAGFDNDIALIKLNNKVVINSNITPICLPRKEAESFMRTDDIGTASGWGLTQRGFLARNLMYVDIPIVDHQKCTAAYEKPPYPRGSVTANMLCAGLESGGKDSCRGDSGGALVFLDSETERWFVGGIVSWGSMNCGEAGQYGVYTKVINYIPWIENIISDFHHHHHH
Chain of human MASP1 (P48740 other isoform, or with tags, fused parts or gaps): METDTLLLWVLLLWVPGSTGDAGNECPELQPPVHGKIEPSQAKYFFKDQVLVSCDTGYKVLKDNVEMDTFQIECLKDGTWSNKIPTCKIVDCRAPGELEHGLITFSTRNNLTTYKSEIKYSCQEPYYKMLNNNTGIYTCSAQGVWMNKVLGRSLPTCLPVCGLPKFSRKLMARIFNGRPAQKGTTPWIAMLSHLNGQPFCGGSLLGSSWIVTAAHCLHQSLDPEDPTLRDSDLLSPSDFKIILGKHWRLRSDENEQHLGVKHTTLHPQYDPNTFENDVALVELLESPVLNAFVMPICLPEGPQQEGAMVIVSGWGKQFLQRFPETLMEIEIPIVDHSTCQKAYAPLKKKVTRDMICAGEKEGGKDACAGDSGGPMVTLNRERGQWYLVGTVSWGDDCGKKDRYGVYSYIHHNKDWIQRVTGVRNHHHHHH
Chain of rat MASP2 (Q9JJS8 other isoform, or with tags, fused parts or gaps): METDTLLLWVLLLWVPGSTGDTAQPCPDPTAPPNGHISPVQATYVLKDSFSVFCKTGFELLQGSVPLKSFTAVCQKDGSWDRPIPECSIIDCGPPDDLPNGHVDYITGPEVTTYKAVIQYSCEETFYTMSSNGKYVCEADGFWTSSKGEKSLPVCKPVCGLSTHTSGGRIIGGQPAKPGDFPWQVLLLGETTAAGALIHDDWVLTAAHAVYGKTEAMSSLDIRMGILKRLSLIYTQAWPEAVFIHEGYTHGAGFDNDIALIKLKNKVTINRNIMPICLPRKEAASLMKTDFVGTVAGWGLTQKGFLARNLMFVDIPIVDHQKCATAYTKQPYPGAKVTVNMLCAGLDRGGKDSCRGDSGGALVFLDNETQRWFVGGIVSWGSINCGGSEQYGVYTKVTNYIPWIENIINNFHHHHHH

Compound	IC50 (human MASP2; [1]) [nM]	IC50 (human MASP1; [2]) [nM]	IC50 (rat MASP1; [3]) [nM]	IC50 (rat MASP2; [4]) [nM]	IC50 (human MASP2) [nM]	IC50 (human MASP1) [nM]	IC50 (rat MASP1) [nM]	IC50 (rat MASP2) [nM]
CC[C@H](C)[C@@H]1NC(=O)[C@@H]2CCCN2C(=O)[C@@H]2CCCN2C(=O)[C@H]([C@@H](C)CC)NC(=O)[C@@H]2CSSC[C@H](NC(=O)[C@H]([C@@H](C)O)NC(=O)[C@H](CCCCN)NC(=O)[C@H](CO)NC1=O)C(=O)N[C@@H](CCCNC(=N)N)C(=O)NCC(=O)N[C@@H](CC(=O)O)C(=O)N1CCC[C@H]1C(=O)N[C@@H](Cc1ccccc1)C(=O)N2 [Ref. No 12, reference compound] (cyclo(RGDPFCIPPISKTC); disulfide 6-14)	5000	4800	1000	1000	–	–	–	–
CC[C@H](C)[C@@H]1NC(=O)c2ccc(cc2)CNC(=O)CCCCCNC(=O)[C@@H]2CCCN2C(=O)[C@H]([C@@H](C)CC)NC(=O)[C@H]2NC(=O)[C@H]([C@@H](C)CC)NC(=O)[C@@H]3CCCN3C(=O)[C@@H]3CCCN3C(=O)[C@H](CC(C)(C)C)NC(=O)[C@H](CO)NC(=O)[C@H](CCCNC(=N)N)NC(=O)[C@H](CO)NC(=O)[C@H](CSSC2(C)C)NC1=O [Example 68, N-{3-[(1R,4S,7S,13S,19S,22S,25S,28S,31R,34S,51S,57S)-4,34,57-tri[(2S)-butan-2-yl]-19-(2,2-dimethylpropyl)-22,28-bis(hydroxymethyl)-60,60-dimethyl-3,6,12,18,21,24,27,30,33,36,43,50,56,59-tetradecaoxo-61,62-dithia-2,5,11,17,20,23,26,29,32,35,42,49,55,58-tetradecaazahexacyclo[29.28.4.2^37,400.0^7,110.0^13,170.0^51,55]pentahexaconta-37,39,64-trien-25-yl]propyl}guanidine]	–	–	–	–	2.57	6.1	30.8	2.97
CC[C@H](C)[C@@H]1NC(=O)[C@H](C)NC(=O)CCCCCNC(=O)[C@H]([C@@H](C)CC)NC(=O)[C@H]2NC(=O)[C@H]([C@@H](C)CC)NC(=O)[C@@H]3CCCN3C(=O)[C@@H]3CCCN3C(=O)[C@H](CC(C)(C)C)NC(=O)[C@H](CO)NC(=O)[C@H](CCCNC(=N)N)NC(=O)[C@H](CO)NC(=O)[C@H](CSSC2(C)C)NC1=O [Example 72, N-{3-[(5aS,11S,14S,17S,20S,23R,26S,29S,39S,42R,45S,47aS)-26,39,45-tri[(2S)-butan-2-yl]-11-(2,2-dimethylpropyl)-14,20-bis(hydroxymethyl)-29,48,48-trimethyl-5,10,13,16,19,22,25,28,31,38,41,44,47-tridecaoxohexatetracontahydro-5H-23,42-(methanodithiomethano)dipyrrolo[2,1-1:2′,1′-o][1,4,7,10,13,16,19,22,25,28,31,34,37]tridecaazacyclotritetracontin-17-yl]propyl}guanidine] (cyclo(AICSRS[tBuAla]PPI[Pen]I[Ahx]); disulfide 3-11)	48	6.3	85	14	–	–	–	–

More lines, in order of falling IC50 (human MASP2; [1]), values ahead:

IC50 (human MASP2; [1]) [nM]	IC50 (human MASP1; [2]) [nM]	IC50 (rat MASP1; [3]) [nM]	IC50 (rat MASP2; [4]) [nM]	Compound	IC50 (human MASP2) [nM]	IC50 (human MASP1) [nM]	IC50 (rat MASP1) [nM]	IC50 (rat MASP2) [nM]
895	145	1000	232	CC[C@H](C)[C@@H]1NC(=O)CNC(=O)[C@H](CC(=O)O)NC(=O)[C@@H]2CCCN2C(=O)[C@H]([C@@H](C)CC)NC(=O)[C@@H]2CSSC[C@H](NC1=O)C(=O)N[C@@H](CO)C(=O)N[C@@H](CCCNC(=N)N)C(=O)N[C@@H](CO)C(=O)N[C@@H](CC(C)C)C(=O)N1CCC[C@H]1C(=O)N1CCC[C@H]1C(=O)N[C@@H]([C@@H](C)CC)C(=O)N2 [Ref. No 7, reference compound] (cyclo(CIPDGICSRSLPPI); disulfide 1-7)	–	–	–	–
14	7.2	27	1.4	CC[C@H](C)[C@@H]1NC(=O)CCCCCNC(=O)CC[C@@H](C(N)=O)NC(=O)[C@@H]2CCCN2C(=O)[C@H]([C@@H](C)CC)NC(=O)[C@H]2NC(=O)[C@H]([C@@H](C)CC)NC(=O)[C@@H]3C[C@@H]4CCCC[C@@H]4N3C(=O)[C@@H]3CCCN3C(=O)[C@H](CC(C)C)NC(=O)[C@H](CO)NC(=O)[C@H](CCCNC(=N)N)NC(=O)[C@H](CO)NC(=O)[C@H](CSSC2(C)C)NC1=O [Example 75] ([Ahx]ICSRSLP[Oic]I[Pen]IPE-NH2; disulfide 3-11; lactam N-14)	–	–	–	–
